Data reported in patent US12060588B2, “Methods of editing DNA methylation” (Whitehead Institute for Biomedical Research, priority 2016, dated 2024).

Columns and labels:
[1] = tested on: BDNF promoter IV / BDNF expression; experiment: BDNF expression in mouse cortical neurons (RT-qPCR); assay type: cell-based
Experimental: (§1) FIGS. 3A-3E depict targeted demethylation of BDNF promoter IV by dCas9-Tet1 to activate BDNF in neurons. FIG. 3A provides a schematic representation of targeting BDNF promoter IV by dCas9-Tet1 (dC-T) with specific gRNAs to erase methylation and activate BDNF expression. […] Bars are mean t SD of three biological replicates. FIG. 3C provides representative confocal images for BDNF induction in FIG. 3B. Top panel: BDNF expression was induced by 50 mM KCl treatment for 6 hrs. […] Stained in red for MAP2 (top two panels) or Cherry (bottom two panels), green for BDNF, blue for DAPI and grey for dCas9. Scale bar: 50 um. FIG. 3D depicts bisulfite sequencing of neurons in FIG. 3C. […] Shown is the mean percentage±SD of two biological replicates.
FIGS. 11A-11L depict targeted demethylation of BDNF promoter IV by dCas9-Tet1 in neurons. […] PAM for each gRNA is highlighted by a red box. […] Note that cultured neurons were treated with AraC on DIV2 to halt cell division in glial cells and neural progenitors. […] FIG. 11C provides EDU labeling analysis for the mouse primary neurons over the course of KCl treatment for 24 hrs. Note that extremely few EDU positive cells were observed. Stained in red for EDU, green for MAP2 and DAPI for nuclei. Scale bar: 500 um. FIG. 11D Upper panel: provides quantification of neuronal density over the course of KCl treatment. The post-mitotic neuron density remains steadily around 4.5×10^4/cm2 over time. Bars represent mean±SD of three experimental replicates. Lower panel: provides quantification of the EDU positive cells over the course of KCl treatment. Less than 2% of the cells are EDU-positive over 24 hrs. Bars represent mean±SD of three experimental replicates. FIG. 11E provides confocal micrographs of BDNF induction by ectopic expression of dCas9-Tet1 and a set of 4 gRNAs targeting BDNF promoter IV. Stained in green for BDNF, magenta for MAP2, red for Cherry and blue for DAPI. Note that the lentiviral infection efficiency is close to 100% in these neurons. Scale bar: 50 um. […] Bars represent mean±SD of three experimental replicates. […] FIG. 11J depicts DIV3 mouse cortical neurons were treated with ABT (50 uM) for 6 hours and then treated with KCl (50 mM) for 6-hour before harvest for RT-qPCR analysis. Bars represent mean±SD of three experimental replicates. FIG. 11K depicts DIV3 mouse cortical neurons were treated with 2-Hydroxyglutarate (10 mM) for 2 hours and then treated with KCl (50 mM) for 6-hour before harvest for RT-qPCR analysis. Bars represent mean±SD of three experimental replicates. FIG. 11L depicts DIV3 mouse cortical neurons derived from wild-type or Tet1 knockout E17.5 embryos were subject to time course KCl treatment experiments (6, 9 and 12 h). Bars represent mean±SD of three experimental replicates.
DNA replication-independent active demethylation has been proposed to operate in post-mitotic neurons (Guo et al., 2011; Martinowich et al., 2003). To test whether active demethylation can be induced in post-mitotic neurons, we applied the dCas9-Tet1 system to study the regulation of the BDNF gene. BDNF expression can be induced by neuronal activity accompanied by demethylation of its promoter IV (Chen et al., 2003; Martinowich et al., 2003). We designed 4 gRNAs targeting 11 CpGs in BDNF promoter IV (FIG. 11A) to determine whether dCas9-Tet1 can activate BDNF by inducing demethylation of this promoter (FIG. 3A). Mouse cortical neurons were isolated from E17.5 embryos and cultured for two days in vitro (DIV2) following a well-established experimental procedure for producing primary neuronal culture (Ebert et al., 2013). […] Neurons at day 3 in culture (DIV3) were infected with lentiviral vectors expressing dCas9-Tet1 with or without the 4 gRNAs at almost 100% transduction efficiency (FIG. 11E). At 48-hour post infection some of the cultures were treated with KCl to induce neuronal activity. […] We performed bisulfite sequencing to examine the methylation state of BDNF promoter IV. […]

[2] = tested on: C3H10T1/2 mouse embryonic fibroblast cells; experiment: Fibroblast-to-myoblast conversion assay; assay type: cell-based; settings: for fraction of mock C3H10T1/2 cells expressing MyoD: after 5-Aza treatment (1 uM, 24-hour)
Text: FIGS. 4A-4H depict targeted demethylation of the MyoD distal enhancer by dCas9-Tet1 to facilitate conversion of fibroblasts to myoblasts. FIG. 4A provides a schematic representation of targeting the MyoD distal enhancer (DE) region in DMR-5 by dCas9-Tet1 (dC-T) with specific gRNAs. […] Cherry positive cells were FACS sorted for RT-qPCR analysis. Bars represent mean±SD of three experimental replicates. FIG. 4C bisulfite sequencing of cells in FIG. 4B. […] Shown is the mean percentage±SD of two biological replicates. […] C3H10T1/2 cells were plated as 1×10^4 cells per well in 6-well plate, and then infected with lentiviruses expressing dC-T and gRNAs targeting DMR-5, or a catalytic dead form of Tet1 (dC-dT) with target gRNAs. 24-hour post infection, cells were treated with vehicle control (HEPES buffer) or 5-Azacytidine (1 uM) for 24-hour, and then harvested after 14 days for immunofluorescence staining. Stained in green for MyoD, magenta for MHC and blue for DAPI. Scale bar: 200 um. FIG. 4F provides quantification of MyoD positive cell ratio 14-day post infection with lentiviruses expressing dC-T alone, dC-T with gRNAs targeting DMR-5, and dC-dT with the target gRNAs. […] FIG. 4H provides quantification of myotube density in MHC positive clusters with more than 2 or 5 nuclei at 14-days after infection. […] Data are quantified from 3-5 representative images for F-H. Bars represent mean±SD.
FIGS. 12A-12J depict targeted demethylation of the MyoD DMR-5 by dCas9-Tet1 and conversion of fibroblasts to myoblasts. […] PAM for each sgRNA is highlighted by a red box. FIG. 12B provides experimental scheme of the fibroblast-to-myoblast conversion assay. Briefly, C3H10T1/2 mouse embryonic fibroblast cells were plated as 1×10^4 cells per well in 6-well plate, and then infected with lentiviruses expressing dCas9-Tet1 and target gRNAs. 24-hour post infection, cells were optionally treated with 5-Azacytidine (1 uM) for 24-hour (labeled in red), and harvested for immunofluorescence staining at different time points (day-14, -16 and -25, labeled in dark blue) with medium change every other day. Scale bar: 100 um. […] Stained in green for MHC, red for MyoD and blue for DAPI. Scale bar: 200 um. FIG. 12D depicts a fraction of mock C3H10T1/2 cells expressing MyoD at different times after 5-Aza treatment. The fraction of cells expressing MyoD increases from around 6% at day 14 to around 13% at day 16 and reached around 20% at day 25. Bars represent mean±SD. FIG. 12E provides number of nuclei in MHC+ cell clusters (grouped as 1-2 and >2 nuclei per MHC+ cluster). […] Bars represent mean±SD. Data was quantified from 3-5 representative images for each group in FIG. 12D and FIG. 12E. […] Bars represent mean±SD of three experimental replicates. FIG. 12G provides representative images for C3H10T1/2 cells 16 days after infection with lentiviruses expressing dC-T and gRNAs targeting DMR-5 (MyoD distal enhancer) in a fibroblast-to-myoblast conversion assay as described in FIG. 12B. […] Stained in magenta for MHC, green for MyoD and blue for DAPI. Scale bar: 200 um. FIG. 12H depicts a fraction of MyoD positive cells 16 days after infection with lentiviruses expressing dC-T alone or with gRNAs targeting DMR-5. FIG. 12I show a number of nuclei in MHC+ cell clusters (grouped as 2-5, 6-10, 11-20 and >20 nuclei per MHC+ cluster) 16 days after infection. […] Data are quantified from 3-5 representative images for FIGS. 12H-12J. Bars represent mean±SD.
We then investigated whether targeted demethylation of DMR-5 would synergize with 5-Aza treatment to induce myotube formation (FIG. 12B). To follow the process of myotube formation after 5-Aza treatment, a time-course experiment was performed. Multi-nucleated myotube (MHC-positive) with heterogeneous sizes began to form 14 days post treatment, and both MyoD-positive cell ratio and myotube density and size then increased up to day-25 (FIGS. 12C-12E). […]

BDNF promoter IV [3] = experiment: Bisulfite sequencing of BDNF promoter IV in mouse cortical neurons; assay type: cell-based; settings: KCl 50 mM, 6 hours
Experimental: as §1
DNA replication-independent active demethylation has been proposed to operate in post-mitotic neurons (Guo et al., 2011; Martinowich et al., 2003). To test whether active demethylation can be induced in post-mitotic neurons, we applied the dCas9-Tet1 system to study the regulation of the BDNF gene. BDNF expression can be induced by neuronal activity accompanied by demethylation of its promoter IV (Chen et al., 2003; Martinowich et al., 2003). We designed 4 gRNAs targeting 11 CpGs in BDNF promoter IV (FIG. 11A) to determine whether dCas9-Tet1 can activate BDNF by inducing demethylation of this promoter (FIG. 3A). […]

BDNF promoter IV [4] = experiment: Tet-assisted bisulfite sequencing (TAB-seq) of 5-hmC in BDNF promoter IV; assay type: cell-based, mouse; settings: KCl treatment for 6 hours
Experimental: FIGS. 11A-11L depict targeted demethylation of BDNF promoter IV by dCas9-Tet1 in neurons. […] PAM for each gRNA is highlighted by a red box. […] Note that cultured neurons were treated with AraC on DIV2 to halt cell division in glial cells and neural progenitors. […] FIG. 11C provides EDU labeling analysis for the mouse primary neurons over the course of KCl treatment for 24 hrs. Note that extremely few EDU positive cells were observed. Stained in red for EDU, green for MAP2 and DAPI for nuclei. Scale bar: 500 um. FIG. 11D Upper panel: provides quantification of neuronal density over the course of KCl treatment. The post-mitotic neuron density remains steadily around 4.5×10^4/cm2 over time. Bars represent mean±SD of three experimental replicates. Lower panel: provides quantification of the EDU positive cells over the course of KCl treatment. Less than 2% of the cells are EDU-positive over 24 hrs. Bars represent mean±SD of three experimental replicates. FIG. 11E provides confocal micrographs of BDNF induction by ectopic expression of dCas9-Tet1 and a set of 4 gRNAs targeting BDNF promoter IV. Stained in green for BDNF, magenta for MAP2, red for Cherry and blue for DAPI. […]
Because post-mitotic neurons were used for these experiments, loss of methylation was likely due to active demethylation. […] Similarly, 5-hmC was also detected after KCl treatment (FIG. 11I). […]

## O=C(O)CCC(O)C(=O)O (stereo not drawn) [2-hydroxygluterate, 2-Hydroxyglutarate, reference compound]
[1]; 10 mM for 2 hours, then KCl 50 mM for 6-hour
  effect on induction of BDNF expression by KCl treatment: completely abolished the induction of BDNF expression by KCl treatment

## Nc1ncn([C@@H]2O[C@H](CO)[C@@H](O)[C@H]2O)c(=O)n1 [5-Aza, 5-Azacytidine]
[2]; 5-Aza (1 uM, 24-hour), 14 days after infection
  MHC+ myotube formation: induces MHC+ myotube formation
[2]; day 14
  fraction of mock C3H10T1/2 cells expressing MyoD: around 6%
[2]; day 16
  fraction of mock C3H10T1/2 cells expressing MyoD: around 13%
[2]; day 25
  fraction of mock C3H10T1/2 cells expressing MyoD: around 20%

## C[C@]1(c2nc3c(C(N)=O)cccc3[nH]2)CCCN1 [ABT-888, reference compound]
[1]; 50 uM for 6 hours, then KCl 50 mM for 6-hour
  effect on activation of BDNF by KCl treatment: reduced the activation of BDNF by KCl treatment

## [Cl-].[K+] [KCl, reference compound]
[1]; KCl 50 mM treatment of DIV3 neurons
  BDNF expression: induced BDNF expression
BDNF promoter IV [3]
  methylation of BDNF promoter IV CpGs (positions relative to transcription start site): induced demethylation of CpGs at positions of −148, −66 and 19
BDNF promoter IV [4]
  5-hmC level in BDNF promoter IV: detected
